Experimental data reported in publication PMC5681660, “Reduced hepatitis B and D viral entry using clinically applied drugs as novel inhibitors of the bile acid transporter NTCP” (Scientific Reports, 2017).
Entries after “also recorded” stand apart in the source; their conditions may differ.

How the values were obtained:
[1] = target: T1, mouse NTCP (Mus musculus, UniProt O08705); test: Taurocholate uptake in U2OS cells transiently transfected with mouse NTCP; assay type: cell-based; settings: at the calculated IC50 value for hNTCP
T1 construct: expressed in transfected cells; host or cells: U2OS (transient transfection, PEI)
T1 sequence (O08705 1-362): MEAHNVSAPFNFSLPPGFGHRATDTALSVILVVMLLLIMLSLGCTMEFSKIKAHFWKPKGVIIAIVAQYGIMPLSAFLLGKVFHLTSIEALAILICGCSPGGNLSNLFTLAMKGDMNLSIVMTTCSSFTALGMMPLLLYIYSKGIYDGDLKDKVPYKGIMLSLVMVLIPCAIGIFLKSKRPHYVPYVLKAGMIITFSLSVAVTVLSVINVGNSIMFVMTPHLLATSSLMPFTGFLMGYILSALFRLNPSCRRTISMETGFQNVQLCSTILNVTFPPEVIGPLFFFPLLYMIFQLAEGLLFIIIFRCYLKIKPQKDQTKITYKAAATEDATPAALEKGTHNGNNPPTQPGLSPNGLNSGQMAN
Experimental: (§1) U2OS and MDCK cells were grown in Dulbecco’s modified Eagle’s medium (DMEM, Sigma-Aldrich), supplemented with 10% FCS (Gibco), 1% L-glutamine (Lonza), and 1% penicillin/streptomycin (Lonza). […] Transient transfection of U2OS cells with mouse NTCP (mNTCP) was done with PEI reagent (Brunschwig, Basel, Switzerland). Shortly, U2OS cells were seeded one day prior to transfection in 24-well plates. On the day of transfection, 0.5 µg DNA was mixed with 100 µl unsupplemented DMEM and 3 µg/µl PEI. After 10–15 minute incubation at RT, 20 µl of the transfection mix was added to each 24-well. Transfected cells were used in further experiments 48–72 hours later. Cell lines were passaged twice a week at a confluence of 80%, and incubated in a humidified atmosphere of 37 °C + 5% CO2.
(§2) For MDCK or MDCK-hASBT cells 70.000 cells/well were plated in 24-well plates, followed by 24 hours 10 mM sodium butyrate (Sigma-Aldrich) stimulation the next day. Cells were used in the inhibition studies 24 hours (U2OS cell lines) or 48 hours (MDCK cell lines) later. Inhibition studies with mNTCP transiently transfected cells were conducted 48–72 hours after transfection.
(§3) Medium was aspirated from the wells and cells were washed once with 250 µL uptake buffer. Subsequently, cells were pre-incubated with drug in 150 µL uptake buffer for 10 minutes at 37 °C. Taurocholate uptake was initiated by addition of 100 µL uptake buffer containing taurocholate (final concentration 10 µM TC spiked with tritium-labeled TC) and cells were incubated for 2 minutes at 37 °C. Subsequently, cells were washed 4 times with ice-cold PBS and lysed with 0.05% SDS in water. Radioactivity was measured by liquid scintillation counting.

[2] = target: T2, human ASBT (Homo sapiens, UniProt Q12908); test: Taurocholate uptake in MDCK-hASBT cells; assay type: cell-based; settings: compared with NTCP
T2 construct: expressed in transfected cells; gift of Paul Dawson; induced with sodium butyrate
T2 sequence (Q12908 1-348): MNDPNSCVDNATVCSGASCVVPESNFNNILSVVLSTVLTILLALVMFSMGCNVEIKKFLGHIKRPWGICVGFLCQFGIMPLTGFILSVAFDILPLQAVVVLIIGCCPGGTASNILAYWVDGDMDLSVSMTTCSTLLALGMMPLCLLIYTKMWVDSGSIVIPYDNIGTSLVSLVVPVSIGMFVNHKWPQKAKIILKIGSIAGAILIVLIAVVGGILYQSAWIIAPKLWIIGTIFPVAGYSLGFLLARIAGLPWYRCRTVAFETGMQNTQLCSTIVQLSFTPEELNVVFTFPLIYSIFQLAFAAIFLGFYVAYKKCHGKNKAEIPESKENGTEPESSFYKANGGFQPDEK
Experimental: as §1, §2, §3

[3] = in vitro; settings: human, U2OS-HA-hNTCP cells
[4] = system: HDV; test: HDV infection of HepaRG cells (HDAg immunofluorescence); assay type: cell-based, hepatitis delta virus; settings: HDAg positive cells, day 5; concentration-dependent
[5] = target: T3, human NTCP (Homo sapiens, UniProt Q14973); test: Taurocholate uptake inhibition studies in U2OS-HA-hNTCP cells; assay type: cell-based; design: HA; expressed in transfected cells
T3 sequence (Q14973 1-349): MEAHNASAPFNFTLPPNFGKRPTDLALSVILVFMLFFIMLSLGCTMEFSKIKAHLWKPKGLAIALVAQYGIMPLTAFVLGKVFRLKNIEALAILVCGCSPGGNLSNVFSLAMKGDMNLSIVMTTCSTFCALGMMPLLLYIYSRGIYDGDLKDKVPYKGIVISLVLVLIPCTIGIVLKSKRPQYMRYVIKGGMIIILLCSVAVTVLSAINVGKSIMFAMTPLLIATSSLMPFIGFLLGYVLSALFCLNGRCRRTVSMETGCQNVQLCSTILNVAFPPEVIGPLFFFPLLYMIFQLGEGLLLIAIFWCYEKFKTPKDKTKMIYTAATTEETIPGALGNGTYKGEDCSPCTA
Experimental: as §2, §3

O=C(O)c1cc(/N=N/c2ccc(S(=O)(=O)Nc3ccccn3)cc2)ccc1O [Sulfasalazine]
inhibition of mouse Ntcp-mediated taurocholate uptake compared with human NTCP [1]: inhibited similarly as human NTCP | inhibition of ASBT-mediated taurocholate uptake [2]: largely ineffective | inhibition of ASBT-mediated taurocholate uptake ([2]; listed as sulfasalazine): Complete absence of ASBT inhibition | viability at 2 h, 1 µM [3]: 98.1 ± 3% | viability at 2 h, 10 µM [3]: 90.6 ± 6.9% | viability at 2 h, 100 µM [3]: 85 ± 9.1% | HDV infection in HepaRG cells (in words) [4]: reduced HBV/HDV infection; also recorded: reduce | concentration at which NTCP was inhibited in repeated measurements of TC-uptake and Myrcludex B binding ([5]; U2OS-HA-hNTCP cells, both TC uptake and Myrcludex B binding): ≤ 10 µM | IC50 ([5]; U2OS-HA-hNTCP cells, concentrations 1 nM to 10 mM, read-out: IC50 for hNTCP-mediated TC uptake): 9.6 µM | Taurocholate uptake into U2OS-HA-hNTCP cells (in words) ([5]; increasing drug concentrations): reduced
